What was measured:
Scd1 = assay: Short term HFD mouse model, gene expression in liver tissue: Scd1; type: in vivo; settings: liver mRNA (qPCR, normalized to Tbp), three oral doses of 20 mg/kg, HFD mice
Experimental: (§1) Short Term HFD Mouse Model:
(§2) The in vivo transcriptional regulation of several LXR target genes by LXR modulators was assessed in mice.
For this, C57BL/6J were purchased from Elevage Janvier (Rennes, France) at the age of 8 weeks. After an acclimation period of two weeks, animals were preferred on a high fat diet (HFD) (Ssniff Spezialdiaten GmbH, Germany, Surwit EF D12330 mod, Cat. No. E15771-34), with 60 kcal % from fat plus 1% (w/w) extra cholesterol (Sigma-Aldrich, St. Louis, Mo.) for 5 days. Animals were maintained on this diet during treatment with LXR modulators. […]
Upon termination, liver was collected, dipped in ice cold PBS for 30 seconds and cut into appropriate pieces. […] For the clinical chemistry analysis from plasma, alanine aminotransferase (ALT, IU/mL), cholesterol (CHOL, mg/dL) and triglycerides (TG, mg/dL) were determined using a fully-automated bench top analyzer (Respons®910, DiaSys Greiner GmbH, Flacht, Germany) with system kits provided by the manufacturer. […]
To obtain total RNA from frozen liver tissue, samples (25 mg liver tissue) were first homogenized with RLA buffer (4M guanidin thiocyanate, 10 mM Tris, 0.97% w:v β-mercapto-ethanol). […] Quantitative PCR was performed and analyzed using Prime time Gene expression master mix (Integrated DNA Technologies, Coralville, Iowa, USA) and a 384-format ABI 7900HT Sequence Detection System (Applied Biosystems, Foster City, USA). […]

[1] = Short term HFD mouse model, plasma and liver exposure; type: in vivo; settings: three oral doses of 20 mg/kg, HFD C57BL/6J mice; for Kp at 4 h: mouse, liver/plasma, read-out: liver/plasma ratio, 4 h; for liver exposure, 4 h / plasma exposure, 4 h: 4 h after final treatment
Experimental: as §1, §2
For this, C57BL/6J were purchased from Elevage Janvier (Rennes, France) at the age of 8 weeks. After an acclimation period of two weeks, animals were preferred on a high fat diet (HFD) (Ssniff Spezialdiaten GmbH, Germany, Surwit EF D12330 mod, Cat. No. E15771-34), with 60 kcal % from fat plus 1% (w/w) extra cholesterol (Sigma-Aldrich, St. Louis, Mo.) for 5 days. Animals were maintained on this diet during treatment with LXR modulators. The test compounds were formulated in 0.5% hydroxypropylmethylcellulose (HPMC) and administered in three doses (20 mg/kg each) by oral gavage according to the following schedule: on day one, animals received treatment in the morning and the evening (ca. 17:00), on day two animals received the final treatment in the morning after a 4 h fast and were sacrificed 4 h thereafter. Animal work was conducted according to the national guidelines for animal care in Germany.
Upon termination, liver was collected, dipped in ice cold PBS for 30 seconds and cut into appropriate pieces. Pieces were snap frozen in liquid nitrogen and stored at −80° C. For the clinical chemistry analysis from plasma, alanine aminotransferase (ALT, IU/mL), cholesterol (CHOL, mg/dL) and triglycerides (TG, mg/dL) were determined using a fully-automated bench top analyzer (Respons®910, DiaSys Greiner GmbH, Flacht, Germany) with system kits provided by the manufacturer.

Structure (SMILES) | Scd1 suppression compared to vehicle (Scd1) | Kp at 4 h [1] | liver exposure, 4 h [1] [µM] | plasma exposure, 4 h [1] [nM]
Cc1cc(C)c(S(=O)(=O)N(Cc2ccc(C(F)(F)F)o2)Cc2ccc(-c3cccc(C(C)(C)C(=O)O)c3)cc2Cl)c(C)c1 [10/5] | 0.38 | 33.3 | 4.372 | 131
Cc1ccc2ccccc2c1S(=O)(=O)N(Cc1ccc(-c2cccc(C(C)(C)C(=O)O)c2)cc1)Cc1ccc(C(F)(F)F)o1 [Example 24, 2-Methyl-2-(4′-(((2-methyl-N-((5-(trifluoromethyl)furan-2-yl)methyl)naphthalene)-1-sulfonamido)methyl)-[1,1′-biphenyl]-3-yl)propanoic acid] | 0.25 | 52.4 | 5.359 | 102

Reference: US20200115357A1, “LIVER X RECEPTORS (LXR) MODULATORS” (Phenex-FXR GmbH, priority 2017, published 2020)
